Eleven compounds from patent US12692223B2, “Phenyl-sulfamoyl-benzoic acid derivatives as ERAP1-modulators” (GREY WOLF THERAPEUTICS LIMITED, priority 2021, dated 2026) can be followed below.

A word on the IC50: it is the concentration at which inhibition is half-maximal.

The target of the test is T1, ERAP1 (Homo sapiens, UniProt Q9NZ08).
T1 construct: Purified ERAP1(37-941)-10His (ERAP1)
T1 sequence (Q9NZ08 37-941): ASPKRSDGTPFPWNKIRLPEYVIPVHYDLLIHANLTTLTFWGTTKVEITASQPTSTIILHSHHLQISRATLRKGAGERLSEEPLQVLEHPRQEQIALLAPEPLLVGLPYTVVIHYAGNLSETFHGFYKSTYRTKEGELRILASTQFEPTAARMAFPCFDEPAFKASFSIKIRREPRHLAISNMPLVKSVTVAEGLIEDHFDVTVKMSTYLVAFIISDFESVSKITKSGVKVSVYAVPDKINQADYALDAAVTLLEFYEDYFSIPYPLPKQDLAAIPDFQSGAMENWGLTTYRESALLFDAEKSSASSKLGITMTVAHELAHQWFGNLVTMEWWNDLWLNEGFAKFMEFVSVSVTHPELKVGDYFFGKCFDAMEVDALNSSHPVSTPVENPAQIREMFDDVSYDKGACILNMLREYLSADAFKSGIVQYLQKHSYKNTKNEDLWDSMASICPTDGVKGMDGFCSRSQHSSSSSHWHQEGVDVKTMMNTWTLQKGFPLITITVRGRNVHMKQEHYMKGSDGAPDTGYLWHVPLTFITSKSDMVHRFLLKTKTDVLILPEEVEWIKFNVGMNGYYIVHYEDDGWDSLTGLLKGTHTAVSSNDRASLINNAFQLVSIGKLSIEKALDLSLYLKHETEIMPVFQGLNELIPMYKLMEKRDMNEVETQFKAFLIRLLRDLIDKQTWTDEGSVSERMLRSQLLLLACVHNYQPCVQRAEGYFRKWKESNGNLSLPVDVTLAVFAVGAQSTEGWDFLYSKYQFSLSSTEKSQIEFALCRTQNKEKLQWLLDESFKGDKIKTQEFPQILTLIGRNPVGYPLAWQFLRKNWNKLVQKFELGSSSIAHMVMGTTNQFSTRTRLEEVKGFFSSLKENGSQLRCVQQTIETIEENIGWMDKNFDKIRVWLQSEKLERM
As to the kind of experiment: ERAP1 mediated hydrolysis of an amide substrate measured in a biochemical system (10-mer inhibition assay). As to conditions: purified ERAP1(37-941)-10His; 10-mer substrate; 23° C. for 1 h; excitation 279 nm, emission 355 nm; read-out: IC50 vs Decapeptide WRVYEKC(Dnp)ALK-acid (where Dnp is Dinitrophenyl maleimide) (10-mer). The method, boiled down: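 Purified ERAP1(37-941)-10His in 25 mM Bis-tris propane, 0.05% HPMC, pH 7.75, with compound, then 100 μM 10-mer WRVYEKC(Dnp)ALK or 240 μM L-AMC added (stock concentrations before 1:1 mixing), 1 h at 23 °C. Fluorescence read at ex 279/em 355 nm (10-mer) or ex 365/em 442 nm (L-AMC); IC50 from 4-parameter fit.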
In the case of `N#Cc1cc(NS(=O)(=O)c2cc(C(=O)O)ccc2C2CC2)c(OCC2COC2)cc1Cl` [Example 36, 3-(N-(4-chloro-5-cyano-2-(oxetan-3-ylmethoxy)phenyl)sulfamoyl)-4-cyclopropylbenzoic acid], the half-maximal inhibitory concentration (IC50) lay in the range of 1 to 5 nM.
For `N#Cc1cc(NS(=O)(=O)c2cc(C(=O)O)ccc2C2CC2)c(OC2CCCC2)cc1F` [Example 11, 3-(N-(5-cyano-2-(cyclopentyloxy)-4-fluorophenyl)sulfamoyl)-4-cyclopropylbenzoic acid] the value was under 1 nM.
For `C[C@@H](Oc1cc(Cl)c(C#N)cc1NS(=O)(=O)c1cc(C(=O)O)ccc1C1CC1)C1CCC1` [Example 78, (R)-3-(N-(4-chloro-5-cyano-2-(1-cyclobutylethoxy)phenyl)sulfamoyl)-4-cyclopropylbenzoic acid] the value was under 1 nM; for `CC1CC(COc2cc(Cl)c(C#N)cc2NS(=O)(=O)c2cc(C(=O)O)ccc2C2CC2)C1` (mixture of isomers) [Example 89, 3-(N-(4-chloro-5-cyano-2-((3-methylcyclobutyl)methoxy)phenyl)sulfamoyl)-4-cyclopropylbenzoic acid], under 1 nM.
`N#Cc1cc(NS(=O)(=O)c2cc(C(=O)O)ccc2C2CC2)c(OC2CCC2C2CC2)cc1Cl` (single isomer, unassigned) [Example 131, 3-(N-(4-chloro-5-cyano-2-(2-cyclopropylcyclobutoxy)phenyl)sulfamoyl)-4-cyclopropylbenzoic acid]: the IC50 is under 1 nM.
On to `CC1(C)CCC1Oc1cc(Cl)c(C#N)cc1NS(=O)(=O)c1cc(C(=O)O)ccc1C1CC1` (centres unmarked) [Example 80, 3-(N-(4-chloro-5-cyano-2-(2,2-dimethylcyclobutoxy)phenyl)sulfamoyl)-4-cyclopropylbenzoic acid], for which the 50% inhibitory concentration (IC50) is under 1 nM.
For the compound `N#Cc1cc(NS(=O)(=O)c2cc(C(=O)O)ccc2C2CC2)c(O[C@H]2C[C@H](C(F)(F)F)C2)cc1Cl` [Example 40, 3-(N-(4-chloro-5-cyano-2-((trans)−3-(trifluoromethyl)cyclobutoxy)phenyl)sulfamoyl)-4-cyclopropylbenzoic acid], the IC50 fell in the range of 1 to 5 nM.
In the case of `N#Cc1cc(NS(=O)(=O)c2cc(C(=O)O)ccc2C2CC2)c(OC2CC(F)(F)C2)cc1Cl` [Example 13, 3-(N-(4-chloro-5-cyano-2-(3,3-difluorocyclobutoxy)phenyl)sulfamoyl)-4-cyclopropylbenzoic acid], the IC50 is 1 to 5 nM.
For `COC1CCC1Oc1cc(Cl)c(C#N)cc1NS(=O)(=O)c1cc(C(=O)O)ccc1C1CC1` (single isomer, unassigned) [Example 145, 3-(N-(4-chloro-5-cyano-2-(cis-2-methoxycyclobutoxy)phenyl)sulfamoyl)-4-cyclopropylbenzoic acid] the value was 1 to 5 nM; for `Cc1cc(C#N)cc(NS(=O)(=O)c2cc(C(=O)O)ccc2C2CC2)c1OC1CCCC1` [Example 15, 3-(N-(5-cyano-2-(cyclopentyloxy)−3-methylphenyl)sulfamoyl)-4-cyclopropylbenzoic acid], over 5 nM.
In the case of `N#Cc1cc(NS(=O)(=O)c2cc(C(=O)O)ccc2C2CC2)c(OC2CCC23CC3)cc1Cl` (single isomer, unassigned) [Example 106, 3-(N-(4-chloro-5-cyano-2-(spiro[2.3]hexan-4-yloxy)phenyl)-sulfamoyl)-4-cyclopropylbenzoic acid], the IC50 was under 1 nM.
